Like-named read-outs stand apart in the source and are kept apart here.
Conditions: amide bond, DMF
[1] = 15-membered ring, ONB active ester/DIEA, 1.06 mM, 5 steps
[2] = 15-membered ring, DIEA (active ester), 0.88 mM, 4 steps

## cyclo(-Lys-D-Glu(Php)-Tyr-D-Trp-Leu-)
15-membered ring, DIEA (active ester), 1.11 mM, 5 steps
  ring closure, yield after HPLC: 23.5%

## cyclo(-Arg-D-Glu(NHCH2 Ph)-Tyr-D-Trp-Leu-)
15-membered ring, DIEA (active ester), 0.91 mM, 4 steps
  ring closure, yield after HPLC: 27.1%

## Cc1ccc(S(=O)(=O)NC(=N)NCCC[C@H]2NC(=O)[C@H](Cc3ccccc3)NC(=O)[C@H](Cc3c[nH]c4ccccc34)NC(=O)[C@@H](C)NC(=O)[C@H](Cc3ccc(Cl)cc3)NC2=O)cc1 [cyclo(-Phe-D-Arg(Tos)-pClPhe-D-Ala-Trp-)]
From H-Trp-Phe-dArg(Tos)-pClPhe-dAla-OH, 15-membered ring, PyBOP/DIEA, 25.0 °C, 2 steps
  ring closure, yield after HPLC: 50.5%

## Cc1ccc(S(=O)(=O)NC(=N)NCCC[C@H]2NC(=O)[C@H](c3ccccc3)NC(=O)[C@H](Cc3ccccc3)NC(=O)[C@@H](C)NC(=O)[C@H](Cc3ccccc3)NC2=O)cc1 [cyclo(-Phg-D-Arg(Tos)-Phe-D-Ala-Phe-)]
From H-Phe-Phg-dArg(Tos)-Phe-dAla-OH, 15-membered ring, PyBOP/DIEA, 25.0 °C, 2 steps
  ring closure, yield after HPLC: 13.1%

## cyclo(-Arg-D-Glu((4)-MeOPhp)-Tyr-D-Trp-Leu-)
15-membered ring, DIEA (active ester), 1.07 mM, 5 steps
  ring closure, yield after HPLC: 24.4%

## cyclo(-Arg-Lys(SO2 Nap(2))-Tyr-D-Trp-Leu-)
[1]
  ring closure, yield after HPLC: 48.3%

## cyclo(-Arg-D-Lys(COCH2 Ph)-Tyr-D-Trp-Leu-)
15-membered ring, ONB active ester/DIEA, 0.89 mM, 5 steps
  ring closure, yield after HPLC: 30.6%

## Cc1ccc(S(=O)(=O)NC(=N)NCCC[C@H]2NC(=O)[C@H](Cc3ccccc3)NC(=O)[C@H](Cc3c[nH]c4ccccc34)NC(=O)[C@@H](C)NC(=O)[C@H](Cc3ccc(F)cc3)NC2=O)cc1 [cyclo(-Phe-D-Arg(Tos)-pFPhe-D-Ala-Trp-)]
From H-Trp-Phe-dArg(Tos)-pFPhe-dAla-OH, 15-membered ring, PyBOP/DIEA, 25.0 °C, 2 steps
  ring closure, yield after HPLC: 65.6%

## cyclo(-Arg-D-Glu(NHCH2 CH2 Ph)-Tyr-D-Trp-Leu-)
15-membered ring, DIEA (active ester), 0.9 mM, 4 steps
  ring closure, yield after HPLC: 30.9%

## cyclo(-Arg-D-Lys(CoPh)-Tyr-D-Trp-Leu-)
15-membered ring, ONB active ester/DIEA, 2.62 mM, 5 steps
  ring closure, yield after HPLC: 32.7%

## Cc1ccc(S(=O)(=O)NC(=N)NCCC[C@H]2NC(=O)[C@H](Cc3ccccc3)NC(=O)[C@H](Cc3c[nH]c4ccccc34)NC(=O)[C@@H](C)NC(=O)[C@H](Cc3ccccc3)NC2=O)cc1 [cyclo(-Phe-D-Arg(Tos)-Phe-D-Ala-Trp-)]
From H-Trp-Phe-dArg(Tos)-Phe-dAla-OH, 15-membered ring, PyBOP/DIEA, 25.0 °C, 2 steps
  ring closure, yield after HPLC: 10.8%

## Cc1ccc(S(=O)(=O)NC(=N)NCCC[C@H]2NC(=O)[C@H](Cc3ccccc3)NC(=O)[C@H](Cc3c[nH]c4ccccc34)NC(=O)[C@@H](C)NC(=O)[C@H](Cc3ccc4ccccc4c3)NC2=O)cc1 [cyclo(-Phe-D-Arg(Tos)-Nal(2)-D-Ala-Trp-)]
From H-Trp-Phe-dArg(Tos)-Nal(2)-dAla-OH, 15-membered ring, PyBOP/DIEA, 25.0 °C, 2 steps
  ring closure, yield after HPLC: 15.5%

## cyclo(-D-Tyr-Arg-D-Trp-Leu-D-Lys(SO2 Nap(1))-)
15-membered ring, DIEA (active ester), 3.28 mM, 5 steps
  ring closure, yield after HPLC: 54.3%

## Cc1ccc(S(=O)(=O)NC(=N)NCCC[C@H]2NC(=O)[C@H](c3ccccc3)NC(=O)[C@H](Cc3c[nH]c4ccccc34)NC(=O)[C@@H](C)NC(=O)[C@H](Cc3ccccc3)NC2=O)cc1 [cyclo(-Phg-D-Arg(Tos)-Phe-D-Ala-Trp-)]
From H-dAla-Trp-Phg-dArg(Tos)-Phe-OH, 15-membered ring, PyBOP/DIEA, 25.0 °C, 2 steps
  ring closure, yield after HPLC: 28.3%

## cyclo(-Arg-D-Glu(NHCH2 Nap(1))-Tyr-D-Trp-Leu-)
[2]
  ring closure, yield after HPLC: 56.7%

## cyclo(-Arg-D-Lys(COCH2 CH2 CH2 Ph)-Tyr-D-Trp-Leu-)
15-membered ring, DIEA (active ester), 3.18 mM, 5 steps
  ring closure, yield after HPLC: 28.7%

## cyclo(-Arg-D-Glu(Php)-Tyr-D-Trp-Leu-)
[2]
  ring closure, yield after HPLC: 71.7%

## cyclo (-Arg-D-Lys (COCH2 CH2 CH2 CH2 CH2 Ph)-Tyr-D-Trp-Leu-)
15-membered ring, DIEA (active ester), 3.12 mM, 5 steps
  ring closure, yield after HPLC: 26.8%

## Cc1ccc(S(=O)(=O)NC(=N)NCCC[C@H]2NC(=O)[C@H](Cc3ccccc3)NC(=O)[C@H](Cc3c[nH]c4ccccc34)NC(=O)[C@@H](CC(C)C)NC(=O)[C@H](Cc3ccccc3)NC2=O)cc1 [cyclo(-Phe-D-Arg(Tos)-Phe-D-Leu-Trp-)]
From H-dLeu-Trp-Phe-dArg(Tos)-Phe-OH, 15-membered ring, PyBOP/DIEA, 25.0 °C, 2 steps
  ring closure, yield after HPLC: 29.4%

## Cc1ccc(S(=O)(=O)NC(=N)NCCC[C@H]2NC(=O)[C@H](Cc3ccc(Cl)cc3)NC(=O)[C@H](Cc3c[nH]c4ccccc34)NC(=O)[C@@H](C)NC(=O)[C@H](Cc3ccccc3)NC2=O)cc1 [cyclo(-pClPhe-D-Arg(Tos)-Phe-D-Ala-Trp-)]
From H-Trp-pClPhe-dArg(Tos)-Phe-dAla-OH, 15-membered ring, PyBOP/DIEA, 25.0 °C, 2 steps
  ring closure, yield after HPLC: 7.5%

## Cc1ccc(S(=O)(=O)NC(=N)NCCC[C@H]2NC(=O)[C@H](C)NC(=O)[C@H](Cc3c[nH]c4ccccc34)NC(=O)[C@@H](C)NC(=O)[C@H](Cc3ccccc3)NC2=O)cc1 [cyclo(-Ala-D-Arg(Tos)-Phe-D-Ala-Trp-)]
From H-Trp-Ala-dArg(Tos)-Phe-dAla-OH, 15-membered ring, PyBOP/DIEA, 25.0 °C, 2 steps
  ring closure, yield after HPLC: 21.8%

## cyclo(-Arg-D-Lys-Tyr-D-Trp-Leu-)
15-membered ring, HONB/DCC preactivation, DIEA, 0.94 mM, 5 steps
  ring closure, yield after HPLC: 11.7%

## cyclo(-Arg-D-Glu(NHCH2 CH2 Ph)-Lys(COPh)-D-Trp-Leu-)
15-membered ring, DIEA (active ester), 3.63 mM, 5 steps
  ring closure, yield after HPLC: 57.6%

## cyclo(-Arg-D-Glu(NHCHPh2)-Tyr-D-Trp-Leu-)
15-membered ring, DIEA (active ester), 0.86 mM, 4 steps
  ring closure, yield after HPLC: 26.1%

## cyclo(-Arg-D-Glu(NHCH2 CH2 Ph)-Tyr-D-Trp-Phe-)
15-membered ring, ONB active ester/DIEA, 1.08 mM, 5 steps
  ring closure, yield after HPLC: 37%

## cyclo(-Arg-D-Glu(NHCH2 CH2 Ph)-Tyr-D-Trp-Trp-)
15-membered ring, ONB active ester/DIEA, 1.33 mM, 5 steps
  ring closure, yield after HPLC: 14.8%

## Cc1ccc(S(=O)(=O)NC(=N)NCCC[C@H]2NC(=O)[C@H](Cc3ccc(F)cc3)NC(=O)[C@H](Cc3c[nH]c4ccccc34)NC(=O)[C@@H](C)NC(=O)[C@H](Cc3ccccc3)NC2=O)cc1 [cyclo(-pFPhe-D-Arg(Tos)-Phe-D-Ala-Trp-)]
From H-Trp-pFPhe-dArg(Tos)-Phe-dAla-OH, 15-membered ring, PyBOP/DIEA, 25.0 °C, 2 steps
  ring closure, yield after HPLC: 58.8%

## cyclo(-Arg-D-Lys(SO2 Nap(1))-Tyr-D-Trp-Leu-)
[1]
  ring closure, yield after HPLC: 30%

## cyclo(-Arg-Glu(Php)-Tyr-D-Trp-Leu-)
15-membered ring, DIEA (active ester), 1.1 mM, 5 steps
  ring closure, yield after HPLC: 22.7%

## cyclo(-Thg(2)-D-Arg(Tos)-Phe-D-Ala-Trp-)
15-membered ring, PyBOP/DIEA, 25.0 °C
  ring closure, yield after HPLC: 13.8%

## cyclo(-Arg-D-Glu(NHCH2 CH2 Ph)-Lys(COPh)-D-Trp-Phe-)
15-membered ring, ONB active ester/DIEA, 1.28 mM, 5 steps
  ring closure, yield after HPLC: 5.7%

## cyclo(-Lys(isopropyl)-D-Glu(NHCH2 CH2 Ph)-Tyr-D-Lys(Nic)-Leu-)
15-membered ring, ONB active ester/DIEA, 1.19 mM, 5 steps
  ring closure, yield after HPLC: 44.3%

## COc1cc(C)c(S(=O)(=O)NC(=N)NCCC[C@H]2NC(=O)[C@H](Cc3ccccc3)NC(=O)[C@H](Cc3c[nH]c4ccccc34)NC(=O)[C@@H](C)NC(=O)[C@H](Cc3ccccc3)NC2=O)c(C)c1C [cyclo(-Phe-D-Arg(Mtr)-Phe-D-Ala-Trp-)]
From H-dAla-Trp-Phe-dArg(Mtr)-Phe-OH, 15-membered ring, PyBOP/DIEA, 1.0 mM, 25.0 °C, 2 steps
  ring closure, yield after HPLC: 5.8%

## cyclo(-Arg-D-Lys(Ac)-Tyr-D-Trp-Leu-)
15-membered ring, ONB active ester/DIEA, 1.36 mM, 5 steps
  ring closure, yield after HPLC: 23.9%

## cyclo(-Arg-D-Glu((2)-MeOPhp)-Tyr-D-Trp-Leu-)
15-membered ring, DIEA (active ester), 1.07 mM, 4 steps
  ring closure, yield after HPLC: 9.2%

## Cc1ccc(S(=O)(=O)NC(=N)NCCC[C@H]2NC(=O)[C@H](c3ccccc3)NC(=O)[C@H](Cc3c[nH]c4ccccc34)NC(=O)[C@@H](CO)NC(=O)[C@H](Cc3ccccc3)NC2=O)cc1 [cyclo(-Phg-D-Arg(Tos)-Phe-D-Ser-Trp-)]
From H-dSer-Trp-Phg-dArg(Tos)-Phe-OH, 15-membered ring, PyBOP/DIEA, 25.0 °C, 2 steps
  ring closure, yield after HPLC: 15.7%

## cyclo(-D-Leu-Lys(SO2 Nap(1))-D-Tyr-Arg-D-Trp-)
15-membered ring, ONB active ester/DIEA, 3.3 mM, 5 steps
  ring closure, yield after HPLC: 52.2%

## cyclo(-Arg-D-Trp-Tyr-D-Trp-Leu-)
15-membered ring, HONB/DCC preactivation, DIEA, 1.01 mM, 5 steps
  ring closure, yield after HPLC: 11.5%

## Cc1ccc(S(=O)(=O)NC(=N)NCCC[C@@H]2NC(=O)[C@H](Cc3ccccc3)NC(=O)[C@H](Cc3c[nH]c4ccccc34)NC(=O)[C@@H](C)NC(=O)[C@H](Cc3ccccc3)NC2=O)cc1 [cyclo(-Phe-Arg(Tos)-Phe-D-Ala-Trp-)]
From H-Trp-Phe-Arg(Tos)-Phe-dAla-OH, 15-membered ring, PyBOP/DIEA, 25.0 °C, 2 steps
  ring closure, yield after HPLC: 71.5%

## cyclo(-Arg-D-Lys(SO2 Nap(2))-Trp-D-Trp-Leu-)
15-membered ring, HONB/DCC preactivation, DIEA, 2.47 mM, 5 steps
  ring closure, yield after HPLC: 27.1%

## cyclo(-Arg-D-Glu((2)-Pyp)-Tyr-D-Trp-Leu-)
15-membered ring, DIEA (active ester), 1.1 mM, 4 steps
  ring closure, yield after HPLC: 12.1%

## cyclo(-Arg-D-Glu(NHCH2 CH2 Ph)-Asp (NHCH2 Ph)-D-Trp-Leu-)
15-membered ring, DIEA (active ester), 2.67 mM, 5 steps
  ring closure, yield after HPLC: 6.72%

## cyclo(-Arg-D-Glu(Bzlp)-Tyr-D-Trp-Leu-)
15-membered ring, DIEA (active ester), 1.09 mM, 4 steps
  ring closure, yield after HPLC: 21.6%

## cyclo(-Tyr-D-Trp-Leu-Arg-Trp-Pro-)
18-membered ring, DIEA, 1.0 mM, 5 steps
  ring closure, yield after HPLC: 15.3%

— US6136781A, “LH-RH receptor antagonists” (Takeda Chemical Industries, Ltd., priority 1995, dated 2000)
